Assay results reported in patent US20070021391A1, “Preventive/remedy for urinary disturbance” (priority 2003, published 2007).
Read-outs that look alike come from different tables or passages of the source.

Legend:
[1] = test system: butyrylcholine esterase/acetylcholine esterase; conditions: Literature 7; species not given; cited from earlier work
[2] = target: T1, acetylcholine esterase of human erythrocyte origin (Homo sapiens, UniProt P22303); assay: biochemical; type: biochemical
T1 construct: acetylcholine esterase of human erythrocyte origin; purchased Sigma, St. Louis, Mo., USA; host or cells: human erythrocytes
Experimental: (§1) The AChE inhibitory activity and the BuChE inhibitory activity were determined by a thiocholine method (Ellman method) using acetylcholine esterase of human erythrocyte origin (Sigma, St. Louis, Mo., USA) and butyrylcholine esterase of human serum origin (Biogenesis, Poole, UK). Acetylcholine esterase or butyrylcholine esterase was diluted to a concentration of 0.2 IU/mL with 80 mM tris-HCL buffers (pH=7.4) containing 0.3% bovine serum albumin (BSA) to prepare an enzyme preparation. […] The stock solution was diluted at 3-fold common ratio with 10% DMSO and 80 mM tris-HCl buffers containing 0.3% BSA. On a 96 wells microplate, 20 μL of the drug solution with a given concentration, 30 μL of 80 mM tris-HCl buffers containing 0.3% BSA and 50 μL of the enzyme preparation were distributed, and incubated at room temperature for 1 hour after shaking for 10 seconds. […] For the respective drugs, the test was repeated twice. The % of control of the increase in light absorption was calculated at each concentration with respect to the respective drugs. % of control=increase in light absorption of drug/increase in light absorption of control×100

[3] = target: T2, butyrylcholine esterase of human serum origin (Homo sapiens, UniProt P06276); assay: biochemical; type: biochemical
T2 construct: butyrylcholine esterase of human serum origin; purchased Biogenesis, Poole, UK; host or cells: human serum
Experimental: as §1

[4] = test system: Hartley male guinea pig, urethane anesthesia; assay: Pressure/flow study using guinea pig (Example 3); type: in vivo; conditions: for Amount of urination, proportion for value before administration (%) / At maximum urine flow rate Inner pressure of bladder, proportion for value before administration (%) / Maximum urine flow rate, proportion for value before administration (%): i.v.; for Bladder compliance, proportion for value before administration (%) / Bladder volume, proportion for value before administration (%): iv; for change of the parameters at urination and at collection of urine (text): intravenous administration
Experimental: A Hartley male guinea pig of 5 weeks old (Japan SLC) was used. After urethane anesthesia, the medial incision of the lower abdomen was carried out, and the bladder was exposed. Two injection needles (20G) with which a polyethylene tube (PE-100) was linked were inserted in the bladder, and one needle was used for injection of saline and another needle was used for measurement of the inner pressure of the bladder. The injection of saline was continuously carried out at a rate of 18 mL/h using a syringe pump (SP-100S, JMS, and Hiroshima), the injection was stopped after intermittent urination was confirmed 3 times at minimum, and the saline in the bladder was removed by suction. Injection was started again, and the injection was stopped when the raise of the inner pressure of the bladder just before urination was confirmed. The amount of urine excreted was measured by an electronic weighing machine (HX-400, A&D, and Tokyo) and the inner pressure of the bladder was measured using a pressure transducer (AP641G, NIPPON KODEN Corporation). The analogue data of the weight of urine and the inner pressure of the bladder were inputted in a multi-channel data analyzer (MP-100A-CE, Biopac systems), and analyzed by a proprietary software (Acqknowledge, Biopac systems). The sampling interval of data was 0.1 second and a low pass filter was applied to the data of discharge amount and urine flow rate at 0.5 Hz in order to remove noise. A delay time of 0.1 second in weighing the urine was rectified, and the urine flow rate was determined by differentiating the value of discharge amount. After a value before twice administration of the drug was measured, the drugs (the compound A, distigmine, neostigigmine and bethanechol) were intravenously administrated. Saline in the bladder was extracted after 10 minutes of administration of the compound A, bethanechol and neostigigmine and after 30 minutes of administration of distigmine, and injection was started again to measure data. The drugs were dissolved with distilled water so that administration volume was 0.5 mL/kg. Parameters (bladder volume, the amount of urination, the maximum urine flow rate, the inner pressure of the bladder at the maximum urine flow, bladder compliance) below were measured. The bladder compliance was calculated from intersection point (the threshold of bladder volume, threshold pressure) which was obtained by determining regression line in the respective curves of the inner pressure of the bladder at collection of urine and urinary reflex. The change rate before and after administration of the drug was calculated for the respective parameters and the calibration of significant difference was carried out by a solvent administration group and Dunnett calibration (Table 6 and Table 7).

Butyrylcholine esterase [5] = target: Butyrylcholine esterase (Equus caballus, UniProt P81908); conditions: read-out: Butyrylcholine esterase inhibitory activity (IC50); cited from earlier work
Acetylcholine esterase [6] = target: Acetylcholine esterase (Electrophorus electricus, UniProt O42275); conditions: Electric eel; Literature 5 (tacrine line prints 6); read-out: Acetylcholine esterase inhibitory activity (IC50); cited from earlier work
bladder muscle = test system: bladder muscle; parameters: species or system guinea pig; conditions: for Tension (%): 30 minutes, change of basic tension, 100 mM KCl contraction = 100%
Butyrylcholine esterase [7] = target: Butyrylcholine esterase (Rattus norvegicus, UniProt Q9JKC1); conditions: Literature 6, read-out: Butyrylcholine esterase inhibitory activity (IC50); cited from earlier work
Acetylcholine esterase [8] = target: T3, Acetylcholine esterase (Rattus norvegicus, UniProt P37136); conditions: Literature 6, read-out: Acetylcholine esterase inhibitory activity (IC50); cited from earlier work
T3 sequence (P37136 32-614): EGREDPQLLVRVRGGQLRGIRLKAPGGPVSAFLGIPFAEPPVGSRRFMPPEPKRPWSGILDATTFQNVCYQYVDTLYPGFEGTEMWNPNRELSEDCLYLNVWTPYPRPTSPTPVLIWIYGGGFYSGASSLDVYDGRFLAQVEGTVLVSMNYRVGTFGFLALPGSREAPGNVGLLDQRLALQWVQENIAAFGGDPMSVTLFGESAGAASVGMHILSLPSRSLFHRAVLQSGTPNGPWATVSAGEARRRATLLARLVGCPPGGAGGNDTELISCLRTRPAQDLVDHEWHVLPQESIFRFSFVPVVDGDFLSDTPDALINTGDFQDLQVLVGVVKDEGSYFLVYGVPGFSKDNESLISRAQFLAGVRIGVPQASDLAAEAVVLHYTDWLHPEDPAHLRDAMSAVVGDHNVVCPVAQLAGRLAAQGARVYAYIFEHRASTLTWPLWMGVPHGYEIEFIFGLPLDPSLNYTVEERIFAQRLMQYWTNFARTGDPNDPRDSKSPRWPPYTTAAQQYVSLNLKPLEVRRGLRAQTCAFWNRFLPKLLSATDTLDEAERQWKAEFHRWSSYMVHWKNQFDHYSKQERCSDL

T2 sequence (P06276 29-602): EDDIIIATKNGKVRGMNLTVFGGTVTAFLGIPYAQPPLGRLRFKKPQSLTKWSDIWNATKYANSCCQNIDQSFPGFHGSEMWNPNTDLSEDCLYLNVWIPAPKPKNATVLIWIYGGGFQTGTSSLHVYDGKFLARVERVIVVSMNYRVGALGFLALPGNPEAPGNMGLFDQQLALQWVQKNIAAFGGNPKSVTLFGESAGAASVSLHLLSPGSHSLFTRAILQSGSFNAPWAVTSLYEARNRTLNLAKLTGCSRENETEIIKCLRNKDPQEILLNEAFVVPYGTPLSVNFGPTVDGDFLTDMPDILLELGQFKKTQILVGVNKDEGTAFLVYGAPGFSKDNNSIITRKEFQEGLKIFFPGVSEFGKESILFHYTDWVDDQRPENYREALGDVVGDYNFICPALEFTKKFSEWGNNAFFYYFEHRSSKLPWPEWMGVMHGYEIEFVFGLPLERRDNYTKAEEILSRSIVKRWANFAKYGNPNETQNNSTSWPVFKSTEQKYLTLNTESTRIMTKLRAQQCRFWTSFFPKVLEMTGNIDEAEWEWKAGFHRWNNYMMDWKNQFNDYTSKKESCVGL
Chain of Butyrylcholine esterase (Rattus norvegicus, UniProt Q9JKC1) (Q9JKC1 24-597): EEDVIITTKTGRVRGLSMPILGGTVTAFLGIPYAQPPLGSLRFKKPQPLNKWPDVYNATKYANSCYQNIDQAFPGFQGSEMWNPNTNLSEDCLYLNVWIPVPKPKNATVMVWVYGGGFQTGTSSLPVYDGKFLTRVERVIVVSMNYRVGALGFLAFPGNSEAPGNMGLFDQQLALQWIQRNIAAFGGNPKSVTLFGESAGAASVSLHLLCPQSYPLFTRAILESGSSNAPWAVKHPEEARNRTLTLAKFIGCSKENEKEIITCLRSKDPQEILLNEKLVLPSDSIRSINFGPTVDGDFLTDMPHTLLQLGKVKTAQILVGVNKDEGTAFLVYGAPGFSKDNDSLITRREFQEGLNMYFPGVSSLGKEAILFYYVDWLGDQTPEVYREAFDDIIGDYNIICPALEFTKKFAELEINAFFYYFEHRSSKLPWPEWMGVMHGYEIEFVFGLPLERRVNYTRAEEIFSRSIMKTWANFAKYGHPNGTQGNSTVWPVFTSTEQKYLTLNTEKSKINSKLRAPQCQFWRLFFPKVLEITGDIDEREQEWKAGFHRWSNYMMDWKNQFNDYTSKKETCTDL
T1 sequence (P22303 32-617 isoform P22303-2 limits assumed): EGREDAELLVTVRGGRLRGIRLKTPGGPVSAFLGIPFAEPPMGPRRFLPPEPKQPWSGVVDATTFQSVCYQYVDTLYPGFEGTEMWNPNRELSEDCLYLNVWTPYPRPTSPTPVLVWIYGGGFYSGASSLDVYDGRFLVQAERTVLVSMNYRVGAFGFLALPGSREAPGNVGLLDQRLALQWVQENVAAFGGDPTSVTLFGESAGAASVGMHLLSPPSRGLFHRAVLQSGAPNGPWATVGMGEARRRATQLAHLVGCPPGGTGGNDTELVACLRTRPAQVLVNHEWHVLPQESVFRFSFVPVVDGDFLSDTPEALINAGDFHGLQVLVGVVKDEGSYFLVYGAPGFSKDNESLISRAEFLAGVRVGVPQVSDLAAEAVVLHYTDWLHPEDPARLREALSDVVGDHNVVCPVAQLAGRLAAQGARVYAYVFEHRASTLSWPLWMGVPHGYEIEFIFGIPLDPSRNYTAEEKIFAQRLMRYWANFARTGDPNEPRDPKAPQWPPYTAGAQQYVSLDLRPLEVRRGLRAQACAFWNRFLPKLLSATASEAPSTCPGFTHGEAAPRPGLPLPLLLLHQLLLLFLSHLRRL
Chain of Acetylcholine esterase (Electrophorus electricus, UniProt O42275) (O42275 24-633): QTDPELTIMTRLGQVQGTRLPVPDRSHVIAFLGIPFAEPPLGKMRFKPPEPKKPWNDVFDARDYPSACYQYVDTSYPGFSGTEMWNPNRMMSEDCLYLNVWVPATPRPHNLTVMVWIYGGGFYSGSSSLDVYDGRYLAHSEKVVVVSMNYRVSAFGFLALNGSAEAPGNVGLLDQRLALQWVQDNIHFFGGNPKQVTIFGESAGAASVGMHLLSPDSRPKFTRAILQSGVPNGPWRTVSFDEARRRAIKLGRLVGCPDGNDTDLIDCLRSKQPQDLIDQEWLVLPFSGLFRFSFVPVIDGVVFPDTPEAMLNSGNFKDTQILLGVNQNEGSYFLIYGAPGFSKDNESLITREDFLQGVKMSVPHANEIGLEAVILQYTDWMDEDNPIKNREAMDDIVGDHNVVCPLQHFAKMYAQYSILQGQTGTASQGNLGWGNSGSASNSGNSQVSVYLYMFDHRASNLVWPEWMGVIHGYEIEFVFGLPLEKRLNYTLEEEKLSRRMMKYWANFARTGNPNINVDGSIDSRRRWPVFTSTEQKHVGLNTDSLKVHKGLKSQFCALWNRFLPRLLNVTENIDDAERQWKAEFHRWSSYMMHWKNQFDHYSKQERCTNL
Chain of Butyrylcholine esterase (Equus caballus, UniProt P81908) (P81908 whole entry): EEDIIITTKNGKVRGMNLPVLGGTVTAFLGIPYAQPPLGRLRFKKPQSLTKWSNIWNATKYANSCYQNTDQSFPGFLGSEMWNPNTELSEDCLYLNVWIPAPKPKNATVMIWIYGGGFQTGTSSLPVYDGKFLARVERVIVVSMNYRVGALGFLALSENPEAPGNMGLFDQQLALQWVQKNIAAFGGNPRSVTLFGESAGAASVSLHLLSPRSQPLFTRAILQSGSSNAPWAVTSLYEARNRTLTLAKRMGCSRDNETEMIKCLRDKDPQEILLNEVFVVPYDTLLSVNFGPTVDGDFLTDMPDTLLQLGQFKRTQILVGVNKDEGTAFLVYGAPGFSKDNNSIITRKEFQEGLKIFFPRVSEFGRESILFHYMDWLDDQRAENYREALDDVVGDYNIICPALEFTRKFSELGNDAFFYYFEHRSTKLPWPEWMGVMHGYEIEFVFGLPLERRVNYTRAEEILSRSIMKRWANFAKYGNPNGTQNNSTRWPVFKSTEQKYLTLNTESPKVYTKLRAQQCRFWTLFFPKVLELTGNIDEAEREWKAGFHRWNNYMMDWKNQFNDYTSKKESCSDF

## CCc1ccccc1NC(=O)Oc1ccc2c(c1)[C@]1(C)CCN(C)O[C@@H]1N2C [Ganstigmine]
[1]
  Selectivity (butyrylcholine esterase/acetylcholine esterase): 115

## CN(C)C(=O)Oc1cccc([N+](C)(C)C)c1 [Neostigigmine]
[2]
  inhibition of the activity of human acetylcholine esterase: inhibited the activity of human acetylcholine esterase
[3]
  IC50: 600 nM
  inhibitory activity for human butyrylcholine esterase: inhibitory activity was confirmed
[4]; 0.01 mg/kg
  Amount of urination, proportion for value before administration (%): 107.7 ± 17.2%
  At maximum urine flow rate Inner pressure of bladder, proportion for value before administration (%): 112.3 ± 4.2%
  Maximum urine flow rate, proportion for value before administration (%): 79.4 ± 11.5%
  Bladder compliance, proportion for value before administration (%): 61.5 ± 8.6%
  Bladder volume, proportion for value before administration (%): 81.1 ± 8.9%
[4]; 0.03 mg/kg
  Amount of urination, proportion for value before administration (%): 91.6 ± 14.9%
  At maximum urine flow rate Inner pressure of bladder, proportion for value before administration (%): 128.5 ± 10.9 %
  Maximum urine flow rate, proportion for value before administration (%): 67.2 ± 9.9%
  Bladder compliance, proportion for value before administration (%): 59.4 ± 9.1 %
  Bladder volume, proportion for value before administration (%): 86.4 ± 7.5%
[4]; 0.1 mg/kg
  Amount of urination, proportion for value before administration (%): 58.3 ± 16.4%
  At maximum urine flow rate Inner pressure of bladder, proportion for value before administration (%): 130.9 ± 8.7 %
  Maximum urine flow rate, proportion for value before administration (%): 54.0 ± 13.8%
  Bladder compliance, proportion for value before administration (%): 31.7 ± 7.1 %
  Bladder volume, proportion for value before administration (%): 66.5 ± 14.7%
[4]
  change of the parameters at urination and at collection of urine (text): lowered the bladder compliance significantly
[4]; listed as neostigigmine
  change of the parameters at urination and at collection of urine (text): did not show clear action for the amount of urination and the maximum urine flow rate and increased urination pressure significantly
Butyrylcholine esterase [5]
  IC50: 100 nM
Acetylcholine esterase [6]
  IC50: 5000 nM
Bladder muscle; 0.01 μM
  Tension (%): −0.95 ± 0.37%
Bladder muscle; 0.03 μM
  Tension (%): −0.31 ± 0.25%
Bladder muscle; 0.1 μM
  Tension (%): 1.52 ± 0.37 %
Bladder muscle; 0.3 μM
  Tension (%): 6.87 ± 1.25 %
Bladder muscle; 1 μM
  Tension (%): 17.78 ± 2.25 %
Bladder muscle; drug alone
  effect on basic tension: increased basic tension significantly and concentration-dependently

## O=C(CCC1CCN(Cc2ccccc2)CC1)c1ccc2c(c1)NCCCC2 [TAK-147]
Butyrylcholine esterase [7]
  IC50: 24000 nM
Acetylcholine esterase [8]
  IC50: 51 nM
